According to patent US9078444B2, “Isothiazoline derivatives as insecticidal compounds” (Syngenta Participations AG, priority 2011, dated 2015):

Key:
Format in all cases: in vivo
Spodoptera littoralis = Spodoptera littoralis (Egyptian cotton leafworm) cotton leaf disc test; settings: foliar, 72 h, 200 ppm sprayed on cotton leaf discs, mortality, feeding behavior, growth regulation 3 days after treatment
Protocol: Spodoptera littoralis (Egyptian Cotton Leafworm): Cotton leaf discs were placed on agar in a 24-well microtiter plate and sprayed with test solutions at an application rate of 200 ppm. After drying, the leaf discs were infested with […]. The samples were checked for mortality, feeding behavior, and growth regulation 3 days after treatment (DAT).

Heliothis virescens = Heliothis virescens (tobacco budworm) egg test on artificial diet; settings: 96 h, 200 ppm (concentration in well 18 ppm), eggs on artificial diet, egg mortality, larval mortality, growth regulation after 4 days
Protocol: Heliothis virescens (Tobacco Budworm): Eggs (0-24 h old) were placed in 24-well microtiter plate on artificial diet and treated with test solutions at an application rate of 200 ppm (concentration in well 18 ppm) by pipetting. After an incubation period of 4 days, samples were checked for egg mortality, larval mortality, and growth regulation.

Plutella xylostella = Plutella xylostella (diamond back moth) artificial diet test; settings: 144 h, 200 ppm (concentration in well 18 ppm), L2 larvae, larval mortality and growth regulation after 6 days
Protocol: Plutella xylostella (Diamond Back Moth): 24-well microtiter plate (MTP) with artificial diet was treated with test solutions at an application rate of 200 ppm (concentration in well 18 ppm) by pipetting. After drying, the MTPs were infested with L2 larvae (7-12 per well). After an incubation period of 6 days, samples were checked for larval mortality and growth regulation.

Diabrotica balteata = Diabrotica balteata (corn root worm) artificial diet test; settings: 120 h, 200 ppm (concentration in well 18 ppm), L2 larvae, larval mortality and growth regulation after 5 days
Protocol: Diabrotica balteata (Corn Root Worm): A 24-well microtiter plate (MTP) with artificial diet was treated with test solutions at an application rate of 200 ppm (concentration in well 18 ppm) by pipetting. After drying, the MTPs were infested with L2 larvae (6-10 per well). After an incubation period of 5 days, samples were checked for larval mortality and growth regulation.

Thrips tabaci = Thrips tabaci (onion thrips) sunflower leaf disc test; settings: foliar, 168 h, 200 ppm sprayed on sunflower leaf discs, mixed ages, mortality after 7 days
Protocol: Thrips tabaci (Onion Thrips): Sunflower leaf discs were placed on agar in a 24-well microtiter plate and sprayed with test solutions at an application rate of 200 ppm. After drying, the leaf discs were infested with a thrips population of mixed ages. After an incubation period of 7 days, samples were checked for mortality.

Tetranychus urticae = Tetranychus urticae (two-spotted spider mite) bean leaf disc test; settings: foliar, 192 h, 200 ppm sprayed on bean leaf discs, mixed ages, egg, larval and adult mortality 8 days later
Source text: Tetranychus urticae (Two-Spotted Spider Mite): Bean leaf discs on agar in 24-well microtiter plates were sprayed with test solutions at an application rate of 200 ppm. After drying, the leaf discs are infested with mite populations of mixed ages. 8 days later, discs are checked for egg mortality, larval mortality, and adult mortality.

Measured: pest or weed control at 200 ppm

Cc1cc(NC(=O)c2ccc(C3=NSC(c4cc(Cl)cc(Cl)c4)(C(F)(F)F)C3)cc2C)n(C)n1 (stereo not drawn) [Compound A17]
≥ 80%: all assays above

Cc1csc(NC(=O)c2ccc(C3=NSC(c4cc(Cl)cc(Cl)c4)(C(F)(F)F)C3)cc2C)n1 (stereo not drawn) [Compound A18]
≥ 80%: all assays above

Cc1cc(C2=NSC(c3cc(Cl)cc(Cl)c3)(C(F)(F)F)C2)ccc1C(=O)NC1(C)CSC1 (stereo not drawn) [Compound A19]
≥ 80%: all assays above

Cc1cc(C2=NSC(c3cc(Cl)cc(Cl)c3)(C(F)(F)F)C2)ccc1C(=O)NC1C[S+]([O-])C1 (stereo not drawn) [Compound A21]
≥ 80%: all assays above

Cc1cc(C2=NSC(c3cc(Cl)cc(Cl)c3)(C(F)(F)F)C2)ccc1C(=O)NC1CSC1 (stereo not drawn) [Compound A22, 4-[5-(3,5-Dichloro-phenyl)-5-trifluoromethyl-4,5-dihydro-isothiazol-3-yl]-2-methyl-N-thietan-3-yl-benzamide]
≥ 80%: all assays above

CSCCNC(=O)c1ccc(C2=NSC(c3cc(Cl)cc(Cl)c3)(C(F)(F)F)C2)cc1C (stereo not drawn) [Compound A26]
≥ 80%: all assays above

Cc1cc(C2=NSC(c3cc(Cl)cc(Cl)c3)(C(F)(F)F)C2)ccc1C(=O)NC1CCSC1 (stereo not drawn) [Compound A27]
≥ 80%: all assays above

Cc1cc(C2=NSC(c3cc(Cl)cc(Cl)c3)(C(F)(F)F)C2)ccc1C(=O)NCC1CSC1 (stereo not drawn) [Compound A28]
≥ 80%: all assays above

Cc1cc(C2=NSC(c3cc(Cl)cc(Cl)c3)(C(F)(F)F)C2)ccc1C(=O)NCC1CCS1 (stereo not drawn) [Compound A30]
≥ 80%: all assays above

Cc1cc(C2=NSC(c3cc(Cl)cc(Cl)c3)(C(F)(F)F)C2)ccc1C(=O)NCC1CCS1(=O)=O (stereo not drawn) [Compound A31]
≥ 80%: all assays above

Cc1cc(C2=NSC(c3cc(Cl)cc(Cl)c3)(C(F)(F)F)C2)ccc1C(=O)NCCF (stereo not drawn) [Compound A34]
≥ 80%: all assays above

C#CCNC(=O)c1ccc(C2=NSC(c3cc(Cl)cc(Cl)c3)(C(F)(F)F)C2)cc1C (stereo not drawn) [Compound A35]
≥ 80%: all assays above

CCCNC(=O)c1ccc(C2=NSC(c3cc(Cl)cc(Cl)c3)(C(F)(F)F)C2)cc1C (stereo not drawn) [Compound A36]
≥ 80%: all assays above

Cc1cc(C2=NSC(c3cc(Cl)cc(Cl)c3)(C(F)(F)F)C2)ccc1C(=O)Nc1ncccn1 (stereo not drawn) [Compound A38]
≥ 80%: all assays above

Cc1cc(C2=NSC(c3cc(Cl)cc(Cl)c3)(C(F)(F)F)C2)ccc1C(=O)NC(C)C (stereo not drawn) [Compound A39]
≥ 80%: all assays above

Cc1cc(C2=NSC(c3cc(Cl)cc(Cl)c3)(C(F)(F)F)C2)ccc1C(=O)NCC1CCC1 (stereo not drawn) [Compound A40]
≥ 80%: all assays above

Cc1cc(C2=NSC(c3cc(Cl)cc(Cl)c3)(C(F)(F)F)C2)ccc1C(=O)NCC(F)F (stereo not drawn) [Compound A42]
≥ 80%: all assays above
